The source of these data is patent publication US6017958A, “Method of treating malignant tumors with thyroxine analogues having no significant hormonal activity” (Octamer, Inc., priority 1997, dated 2000).

pIC50: −log10 of the molar value. Like-named read-outs stand apart in the source and are kept apart here.

For data set [1], the system named is Rana pipiens tadpoles. Conditions: tadpole metamorphosis; cited from earlier work.
Data set [2] deals with E-ras 20 cells (E-ras transformed bovine endothelial cells). As to the kind of experiment: Tumorigenicity of pretreated E-ras 20 cells in athymic nude mice. Further details: species or system bovine cells in nude mice. The note with it: 10 μM pretreatment, no in vivo drug treatment.
Data set [3] concerns microtubule protein (MTP). The experiment in a line: Microtubule protein (MTP) polymerization optical test. The data set is classed as biochemical, bovine or rabbit. Here is the method:
Preparation of MTP and an optical test for polymerization was adopted from published methods, Gaskin, et al., 1974, "Turbidimetric studies of the in vitro assembly and disassembly of porcine neurotubules", J. Mol. Biol. 89:737-758; Tiwari, et al., 1993, "A pH and temperature-dependent cycling method that doubles the yield of microtubule protein", Anal. Biochem. 215:96-103. Bovine or rabbit brain was homogenized in an equal volume of ice cold buffer containing 100 mM Pipes/K^+ (pH 7.4), 4 mM EGTA, 1 mM MgCl2, 0.5 mM DTT and 0.1 mM PMSF, and centrifuged at 39,000 g for 1 hour at 4° C. To the supernatant, DMSO (8% final concentration) and GTP (1 mM final concentration) were added, followed by incubation at 37° C. for 30 minutes. Microtubules were pelleted at 100,000 g at 37° C for 30 minutes. The pellets were incubated on ice for 15 minutes, followed by resuspension in ice cold PEM buffer (100 mM Pipes/K+(pH 6.9), 1 mM EGTA, 1 mM MgCl2). This warm polymerization and cold depolymerization cycle was repeated once more and the cold, resuspended monomeric MTP (8-10 mg/ml protein) was used for the optical test for polymerization kinetics. Both rabbit or bovine brain yielded identical MTP preparations.
The composition of the optical test is described in the legends of Figures and Table 12. The polymerization reaction was started by the addition of 100 μl of MTP solution (equivalent to 0.8-1.0 mg protein) and initial linear rates of increase in absorbance at 350 nm followed and recorded at 37° C. (see FIG. 1) in a Perkin-Elmer 552 double beam spectrophotometer, equipped with a thermostatically controlled cuvette holder.
[…] Microtubule assembly at 37° C. was monitored at λ=350 nm and initial velocities were calculated as mA350 /min. […] The values are averages of duplicate assays.

The conditions of data set [4]: 0.25 to 1.0 g/kg daily per os; cited from earlier work.
Data set [5] has as its system DU 145 (prostate cancer). The experiment in a line: Cytocidal action/growth inhibition, DU 145. Type of data set: cell-based. Conditions: Homo sapiens. Here is the method:
Seven human cancer cell lines were obtained from the American Tissue Culture Collection (Rockville, Md.) and maintained in the recommended growth media. Cells were seeded into wells (2 cm^2) at a density of 2×10^4 cells/cm^2. Various concentrations of Compounds 1-13 were added to the media at the time of seeding.
The cultures were incubated for 72 hours at 37° C. (5% CO2 atmosphere). Following incubation, cells were detached with trypsin and counted in a hemocytometer.
I100 designates the concentration at which no viable cells remained; I50 the concentration at which 50% viable cells remained, as compared to a control.
E-ras 20 cells were cultured as reported, Bauer et al., 1996, "Modification of growth related enzymatic pathways and apparent loss of tumorigenicity of a ras-transformed bovine endothelial cell line by treatment with 5-iodo-6-amino-1,2-benzopyrone (INH2 BP)" Intl. J. Oncol. 8:239-252; HT-144 (melanoma), DU-145 (prostatic cancer), HeLa (cervical cancer), HL 60 (promyelocytic leukemia), MDA-MB-231 (mammary cancer), SK-Br-3 (mammary cancer), T47D (ductal mammary cancer), A559 (lung cancer) were obtained from American Type Culture Collection (Rockville, Md.) and cultured in prescribed media. The effect of DIME was tested in cultures with a starting cell density of 2×10^4 cells per cm^2 and comparison of the effect of DIME on cell growth (intact cells identified by Trypan blue exclusion) was assayed by direct cell counting after trypsinization in a hemocytometer 72 hours after drug addition.
For DIME-exposure experiments cells were seeded into 2 cm^2 wells at a density of 2×10^4 cells/cm^2. DIME at various concentrations was added to the medium at the time of seeding. The cell cultures were then incubated for 3 days (37° C. in 5% at CO2 atmosphere).

Data set [6] has as its system iodine uptake into the thyroid. Conditions: rats, as compared to thyroxine (Money et al., 1959); cited from earlier work.
In data set [7] the test system is biosynthetic pathways of DNA, RNA or proteins. As to the kind of experiment: Metabolic action and biosynthetic pathways.
Data set [8] concerns mouse pituitary thyrotropic tumors / non-malignant mouse pituitary adenoma. The note with it: cited from earlier work.
Data set [9] deals with E-ras cells. As to the kind of experiment: DNA cuts (TUNEL). Conditions: 2-10 μM, 18 hours. The data set is classed as cell-based, bovine. Here is the method: E-ras cells (2×10^4 cells/cm^2) were treated with DIME 18 hours prior to the TUNEL assay.
Assay for DNA cuts, as a signal for apoptosis, was via the terminal deoxynucleotidyl transferase dUTP nick end labeling (TUNEL) reaction as specified by the manufacturer of the assay kit (Boehringer Mannheim, Indianapolis, Ind., USA, Cat. No. 168-4817).

Data set [10] relates to MDA-MD-231 cells. The experiment in a line: Inhibition of tumor cell growth. Type of data set: cell-based, human. The note with it: 3 days, control 0.95. Here is the method:
MDA-MD-231 human cancer cells were obtained from the American Tissue Culture Collection (Rockville, Md.) and maintained in the recommended growth media. Cells were grown in the presence of various concentrations of Compounds 1 and 14 for 3 days at 37° C.

Take `COC(=O)c1cc(I)c(Oc2ccc(OC)cc2)c(I)c1` [Compound 1, Methyl 3,5-diiodo-4-(4'-methoxyphenoxy)benzoate]: the “metamorphosis / cell differentiating activity” value in data set [1] was “no significant metabolic or cell differentiating activity”. Moreover, the “tumor appearance after 3 months” value in [2] is on record as “Tumors did not appear even after 3 months”. For the same compound, the “decrease of Vmax” value in [3] (1 μM DIME) is reported as roughly 50%. The “type of inhibition of MTP polymerization” value in data set [3] (1 μM DIME, versus GTP) is on record as “"mixed" type inhibition”. In addition, the Km in data set [3] (1 μM DIME, 6.7 μM without drug, read-out: km GTP) came to 14 µM. For the same compound, the “Percent inhibition of initial velocity of microtubule assembly” value in data set [3] (10 μM, 1 mM GTP, 37° C.) stood at 93%. Also, the “inhibition of GTP-dependent polymerization of MTP” value in [3] (1 to 5 μM) is listed as “inhibits the GTP-dependent polymerization of MTP”. Moreover, the noticeable toxicity entry in data set [4] is reported as “no noticeable toxicity”. The pIC50 was 6.30 in [5] (DU-145, 72 h, day 3, Table 11, read-out: I50 (day 3)) and 6.30 in data set [5] (DU-145, 72 h, Table 4, read-out: I50). The IC100 in data set [5] (DU-145, 72 h, Table 4, read-out: I100 (no viable cells remained)) came to 3.5 µM. For the same compound, the “inhibition of uptake of iodine into the thyroid” value in [6] is 15%. Besides, the “inhibition of biosynthetic pathways of DNA, RNA or proteins” value in data set [7] is “nor does it inhibit the biosynthetic pathways of DNA, RNA or proteins”. For the same compound, the metabolic action result in [7] was “no metabolic action”. For the same compound, the “growth of mouse pituitary tumor” value in data set [8] was “no inhibitory activity”. For the same compound, in data set [9], the DNA breaks result was “drug concentration-dependent DNA breaks”. The “Cells (growth)” value is on record as 0.20 ×10^6 in data set [10] (0.5 μM), 0.10 ×10^6 in [10] (1.0 μM) and 0.09 ×10^6 in data set [10] (2.0 μM).

As usually defined, the Km is the concentration of substrate that gives half-maximal velocity.
